US20060035927A1, “Calcilytic compounds” (SmithKline Beecham Corporation, priority 1999, published 2006)
Structures can show the parent of a compound that is named as a salt.

How the values were obtained:
[1] = test system: primary human osteoblasts; experiment: Osteoblast cAMP production, primary human osteoblasts; assay type: cell-based; settings: compound 0.1, 1 and 10 uM
Experimental: (§1) cAMP accumulation was measured in both human TF274 osteoblastic cells (derived by immortalization of human bone marrow stromal cells) see James, supra, and primary human osteoblasts derived from explants of trabecular bone as described in Beresford, Biochim. Biophys. Acta, Vol. 801, pp. 58-65 ([…]). cAMP levels in cell samples were measured using a non-radioactive protocol (Amersham kit). Alkaline phosphatase activity was determined using the standard colorimetric method as described previously in Gowen, Arth. Rheum., Vol. 31, pp. 1500-1507 (1988). N-[(2R-Hydroxy-3-[(3-chloro-2-cyano)phenoxy-propyl]-1,1-dimethyl-2-(2-naphthyl)ethyl amine hydrochloride was tested at 0.1, 1 and 10 uM. PTH 40 ng/ml was used as a positive control.

[2] = test system: osteopenic ovx rats; experiment: Ovariectomized rat Study 1: bone mineral density by DXA; assay type: in vivo; settings: Study 1, ovx rats, 100 mmol/kg body weight daily p.o., eight weeks of dosing
Excerpt: Seven month old virgin Sprague Dawley female rats were subjected to bilateral ovariectomy or sham surgery and the animals then held for a period of three months to allow the development of osteopenia. At that time a single sham group (n=10) and three groups of ovariectomized (ovx) animals (n=10-14) were assigned. The ovx groups were selected such that there was no significant difference in bone mineral density (“BMD”) of the lumbar spine, proximal tibia or distal femur between groups. Groups consisted of sham and ovx controls treated with dose vehicle (20% aqueous encapsin) and ovx groups treated with either N-[(2R-Hydroxy-3-[(3-chloro-2-cyano)phenoxy-propyl]-1,1-dimethyl-2-(2-naphthyl)ethyl amine hydrochloride (“calcilytic administered”) ([…] body weight daily p.o.) or rat PTH 1-34 (5 ug/kg body weight daily s.c.).
During the study blood samples were drawn for determination of circulating PTH and osteocalcin. BMD was determined by DXA (QDR4500 Hologic, Waltham, Mass.) prior to treatment and at weeks 4 and 8. At term tibiae were removed for histological analysis. All animals received tetracycline 10 and 3 days prior to the start of dosing and calcein (10 mg/kg) 10 and 3 days prior to sacrifice.

[3] = test system: human TF274 osteoblastic cells; experiment: Osteoblast cAMP production, TF274 cells; assay type: cell-based; settings: compound 0.1, 1 and 10 uM
Experimental: as §1

[4] = target: T1, Ca^2+ receptor (Homo sapiens, UniProt P41180); experiment: Ca2+ receptor-mediated Ca2+ mobilization; assay type: cell-based
T1 sequence (P41180 20-1078): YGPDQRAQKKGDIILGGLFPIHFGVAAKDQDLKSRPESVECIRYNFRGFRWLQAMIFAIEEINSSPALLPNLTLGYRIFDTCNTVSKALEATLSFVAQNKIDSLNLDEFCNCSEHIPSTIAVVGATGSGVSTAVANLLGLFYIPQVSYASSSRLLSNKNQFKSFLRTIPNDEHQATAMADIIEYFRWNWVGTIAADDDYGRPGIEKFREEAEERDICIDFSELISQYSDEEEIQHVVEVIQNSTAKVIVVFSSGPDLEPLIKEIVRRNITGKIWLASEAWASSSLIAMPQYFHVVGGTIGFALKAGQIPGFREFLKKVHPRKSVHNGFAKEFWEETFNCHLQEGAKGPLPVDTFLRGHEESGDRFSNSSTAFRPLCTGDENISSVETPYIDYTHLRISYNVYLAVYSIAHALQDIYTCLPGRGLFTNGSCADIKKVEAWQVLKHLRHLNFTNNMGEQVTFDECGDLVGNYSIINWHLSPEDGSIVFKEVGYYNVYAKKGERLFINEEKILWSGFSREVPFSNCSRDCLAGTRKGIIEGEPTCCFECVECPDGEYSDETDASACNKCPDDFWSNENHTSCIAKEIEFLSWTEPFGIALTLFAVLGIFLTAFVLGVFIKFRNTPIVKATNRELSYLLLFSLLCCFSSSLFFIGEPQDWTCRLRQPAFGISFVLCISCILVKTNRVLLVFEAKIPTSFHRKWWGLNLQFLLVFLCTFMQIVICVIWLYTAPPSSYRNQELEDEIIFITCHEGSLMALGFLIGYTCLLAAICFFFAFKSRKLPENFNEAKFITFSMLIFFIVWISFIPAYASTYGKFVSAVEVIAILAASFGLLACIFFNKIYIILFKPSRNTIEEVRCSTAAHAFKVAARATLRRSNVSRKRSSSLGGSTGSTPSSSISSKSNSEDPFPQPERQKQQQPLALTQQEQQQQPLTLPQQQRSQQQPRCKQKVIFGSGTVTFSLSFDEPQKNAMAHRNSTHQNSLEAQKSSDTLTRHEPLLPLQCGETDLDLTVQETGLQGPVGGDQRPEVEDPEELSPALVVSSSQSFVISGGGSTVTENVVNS

[5] = test system: TF274 cells; experiment: Osteoblast alkaline phosphatase activity; assay type: cell-based, human; settings: compound 0.1, 1 and 10 uM
Experimental: as §1

[6] = test system: osteopenic ovx rats; experiment: Ovariectomized rat Study 2: calcilytic plus/minus 17β estradiol, histology and histomorphometry of proximal tibia; assay type: in vivo; settings: Study 2, proximal tibia, static histomorphometry, vs ovx group
Experimental: Animals were prepared and monitored as described above. […] Dosing continued for 5 weeks at which point the animals were sacrificed and the tibiae were collected for histological analysis. Bone samples were dehydrated through increasing concentrations of ethanol, defatted in acetone and embedded in methyl methacrylate (Polysciences, Inc., Warrington, Pa.). Longitudinal undecalcified sections (5 μm) sections of the proximal tibial were cut on a Leica microtome (S[…]); the tissue blocks had been prestained with Villanueva stain. Histomorphometric analysis was carried out using an Osteomeasure system (OsteoMetrics Incorpotated), without knowledge of group allocation. Measurements within the tibial metaphysis were restricted to a mean tissue area of approximately 8 mm^2 beginning 1 mm below the growth plate. Primary measurements included area of bone and marrow (mm^2), bone area (mm^2), perimeter of bone (mm), single and double-labelled perimeter (sL.Pm, dL.Pm, m), osteoid perimeter (O.Pm, m) and eroded perimeter (Er.P, m). […] Statistical analysis was assessed by a two sided t-test.

[7] = test system: human osteoclasts; experiment: Human osteoclast-mediated bone resorption assay; assay type: cell-based; settings: concentrations up to 3 uM, 24 hours
Experimental: The isolation of disaggregated human osteoclasts from fresh osteoclastoma tissue and the in vitro human osteoclast resorption assay were performed according to James, J. Bone Min. Res., Vol. 11, pp. 1453-1460. Briefly, human osteoclasts were seeded onto bovine cortical bone particles with compound or vehicle for 24 hours at 37° C. The culture media were then removed and the levels of the carboxy-terminal peptide of the α1 chain of human type I collagen were quantified as a biochemical readout of resorption, using a competitive binding enzyme linked immunosorbant assay (ELISA) (19) (Osteometer A/S, Rodovre, Denmark). The results are expressed as percent inhibition of resorption compared to supernatants derived from osteoclasts cultured in vehicle without inhibitor. IC50 values are determined from the resultant dose response curves.

Compound: CC(C)(Cc1ccc2ccccc2c1)NC[C@@H](O)COc1cccc(Cl)c1C#N [N-[(2R-Hydroxy-3-[(3-chloro-2-cyano)phenoxy-propyl]-1,1-dimethyl-2-(2-naphthyl)ethylamine hydrochloride]
- PTH-induced cAMP levels ([1]; PTH 40 ng/ml): no effect
- cAMP levels (basal) ([1]; PTH 40 ng/ml positive control): no effect
- bone mass (BMD; lumbar spine, distal femur, proximal tibia) [2]: unaffected
- PTH-induced cAMP levels ([3]; PTH 40 ng/ml): no effect
- cAMP levels (basal) ([3]; PTH 40 ng/ml positive control): no effect
- fold by which fetal rat long bone IC50 exceeds IC50 for Ca^2+ receptor-mediated Ca^2+ mobilization [4]: approximately 300 fold
- alkaline phosphatase activity [5]: did not result in any change
- PTH-induced alkaline phosphatase ([5]; PTH 40 ng/ml): nor was PTH-induced alkaline phosphatase affected
- % trabecular area (% Tb.Ar.) / ovx-induced bone loss [6]: no effect
- effect on human osteoclast mediated bone resorption [7]: no effect
